Patent US9216163B2, “Method of inhibiting angiogenesis” (KYORIN PHARMACEUTICAL CO., LTD, priority 2013, dated 2015)

Legend:
Akt = assay: VEGF-induced phosphorylation of Akt in HUVEC (Western blot); format: cell-based, human; conditions: 100 μM pretreatment 15 minutes, VEGF 30 ng/mL for 5 or 15 minutes
Experimental: (§1) An effect of L-carbocisteine against phosphorylation of Akt, Erk1/2, c-Jun N-terminal kinase (JNK), and p38 MAP kinase accelerated by VEGF stimulation was evaluated using HUVEC. HUVEC were inoculated, and cultured in an EBM-2 medium containing 0.1% FBS overnight under starvation condition. The HUVEC were pretreated with L-carbocisteine (100 μM) for 15 minutes, and stimulated by VEGF (30 ng/mL) for 5 or 15 minutes. Phosphorylation accelerated by VEGF stimulation was evaluated using phosphor-specific antibodies against various kinases by a Western blot method. The level of kinase protein expression was investigated using each antibody after detection of phosphorylation.

[1] = tested on: c-Jun N-terminal kinase (JNK); assay: VEGF-induced phosphorylation of JNK in HUVEC (Western blot); format: cell-based, human; conditions: 100 μM pretreatment 15 minutes, VEGF 30 ng/mL for 5 or 15 minutes
Experimental: as §1

HUVEC [2] = assay: VEGF-induced tube formation of HUVEC in collagen; format: cell-based, human; conditions: 100 μM pretreatment 15 minutes, VEGF 30 ng/mL, after 24 hours
Experimental: An effect of L-carbocisteine against tube formation promoted by VEGF was evaluated in vitro using HUVEC. A collagen Type 1-C (available from Nitta Gelatin Inc.) lower layer was formed on a 12-well plate, HUVEC were inoculated on the lower layer, and a collagen upper layer was then formed. The HUVEC were pretreated with L-carbocisteine (100 μM) for 15 minutes, and stimulated by VEGF (30 ng/mL). The overall length of the lumen after 24 hours was measured (n=6).

HUVEC [3] = assay: VEGF-induced cell growth of HUVEC (Cell Counting Kit-8); format: cell-based, human; conditions: VEGF 30 ng/mL
Experimental: An effect of L-carbocisteine against cell growth promotion by VEGF was evaluated in vitro using HUVEC. HUVEC were inoculated at 2,500 cells/well in a 96-well microplate, and cultured for 24 hours. Subsequently, the HUVEC were cultured in a medium without VEGF and bFGF overnight under a starvation condition. The HUVEC were pretreated with L-carbocisteine (10, 50, 100, and 200 μM) for 15 minutes, and then stimulated by VEGF (30 ng/mL). The number of living cells after 48 hours was determined by Cell Counting Kit-8 (manufactured by DOJINDO LABORATORIES) (n=6). 2) Results

Erk1/2 = assay: VEGF-induced phosphorylation of Erk1/2 in HUVEC (Western blot); format: cell-based, human; conditions: 100 μM pretreatment 15 minutes, VEGF 30 ng/mL for 5 or 15 minutes
Experimental: as §1

p38 MAP kinase = assay: VEGF-induced phosphorylation of p38 MAP kinase in HUVEC (Western blot); format: cell-based, human; conditions: 100 μM pretreatment 15 minutes, VEGF 30 ng/mL for 5 or 15 minutes
Experimental: as §1

HUVEC [4] = assay: VEGF-induced cell migration of HUVEC; format: cell-based, human; conditions: 100 μM pretreatment 15 minutes, VEGF 30 ng/mL, after 12 hours
Experimental: An effect of L-carbocisteine against cell migration promoted by VEGF was evaluated in vitro using HUVEC. HUVEC were inoculated in a plate, and cultured until confluent. Subsequently, the HUVEC were cultured in a medium without VEGF and bFGF overnight under starvation condition. The HUVEC were pretreated with L-carbocisteine (100 μM) for 15 minutes. The cells (HUVEC) on the plate were peeled at certain intervals. The cells remaining on the plate were stimulated by VEGF (30 ng/mL). After 12 hours, the distance of cell migration was measured (n=4).

[5] = tested on: VEGF-induced angiogenesis formed in Matrigel; assay: VEGF-induced angiogenesis in Matrigel, in vivo mouse model (Evans blue); conditions: male C57BL/6J mouse, 5 μg/g B.W. intraperitoneal twice daily for 14 days
Experimental: An effect of L-carbocisteine against angiogenesis promoted by VEGF was evaluated in an in vivo mouse model. A male C57BL/6J mouse (6 weeks) was anesthetized with pentobarbital. Subsequently, 500 μL of BD™ matrix containing 30 ng/mL VEGF was subcutaneously injected into the side of the mouse using a 27-G needle. L-carbocisteine (5 μg per g of body weight of the mouse) or physiologic saline (the same volume) was intraperitoneally administered twice a day, morning and evening, for 14 days. After completion of the administration for 14 days, Evans blue was administered to the mouse via the orbital vein plexus. The mouse was sufficiently perfused with EDTA, and anesthetized with pentobarbital. The matrigel was taken out from the body of the mouse. The weight of taken matrigel was measured, and the matrigel was immersed in a formamide solution and allowed to stand at 37° C. for 48 hours. Following elution of Evans blue in the formamide solution, the weight of eluted Evans blue per unit weight of the matrigel was measured using an absorbance of 620 nm (n=8).

N[C@@H](CSCC(=O)O)C(=O)O [L-carbocisteine, S-(carboxymethyl)-L-cysteine]
accelerated phosphorylation of Akt (Akt): only accelerated phosphorylation of Erk1/2 was specifically suppressed
accelerated phosphorylation of JNK [1]: only accelerated phosphorylation of Erk1/2 was specifically suppressed
tube formation promoted by VEGF (overall length of the lumen) (HUVEC [2]): significantly suppressed
growth suppressive effect, concentration dependence (HUVEC [3]; 10, 50, 100 and 200 μM, 48 hours): concentration-dependent
endothelial cell growth promoted by VEGF (HUVEC [3]; pretreatment with 100 μM or more for 15 minutes, living cells after 48 hours): significantly suppressed
accelerated phosphorylation of Erk1/2 (Erk1/2): specifically suppressed
accelerated phosphorylation of p38 MAP kinase (p38 MAP kinase): only accelerated phosphorylation of Erk1/2 was specifically suppressed
migration promoted by VEGF (distance of cell migration) (HUVEC [4]): significantly suppressed
vascular density in the matrigel [5]: markedly decreased
